According to article PMC8383266 (Biochemistry, 2021):

Biological target: BlaC (β-lactamase) (Mycobacterium tuberculosis, UniProt P9WKD3, G144S)
Assay type: biochemical

`NC(=O)[C@@H]1CC[C@@H]2CN1C(=O)N2OS(=O)(=O)O` [avibactam] was tested, and the “activity of BlaC G132S in the presence of avibactam (Figure S13, not shown)” value was “we found BlaC G132S is also more sensitive to avibactam”.
